Consider 16 compounds from patent publication US20230295145A1, “PYRROLIDINE DERIVATIVES AND METHODS OF USE” (Genentech, Inc., priority 2020, published 2023).

What all share (assay type): cell-based
In data set [1] the test system is ABC-1. Briefly: Cell Viability Assay (CellTiter-Glo). To be noted: 5 days. In general terms: ATP-based viability assays read luminescence as a measure of living cells.
Description: (§1) Cell lines were cultured in RPMI-1640, 5% fetal bovine serum, and 2 mM glutamine in a humidified incubator maintained at 37° C. with 5% CO2. Cells were assessed with a Vi-CELL Cell Viability Analyzer (Beckman Coulter; Brea, CA); viability of at least 90% was required for screening. A Multidropä Combi Reagent Dispenser (Thermo Scientific; Waltham, MA) was used to plate cells into Falcons^â 384-well, black, clear-bottom plates (Catalog No. 353962; Corning; Tewksbury, MA) using seeding densities previous determined to achieve approximately 80% confluence at the final time point of the assay. The compounds were prepared at 1000× in advance using an Echo 555 liquid handler (Labcyte; Sunnyvale, CA) and stored in −80° C. until the day of compound addition. On the following day, cells were treated with compounds at final assay concentration 1 uM and 10 uM using a Bravo Automated Liquid-Handling Platform (Agilent; Santa Clara, CA). After 5 days, 25 mL CellTiter-Glo^â reagent was added using a MultiFloä Microplate Dispenser (BioTek; Winooski, VT). Cell lysis was induced by mixing for 30 minutes on an orbital shaker; plates were then incubated at room temperature for 10 minutes to stabilize the luminescent signal. Luminescence was read by a 2104 EnVision^â Multilabel Plate Reader (PerkinElmer; Waltham, MA).
(§2) The data was processed using Genedata Screener^â, Version 15 (Genedata; Basel, Switzerland) to assess compound effects on viability. Compound treated wells were normalized to the median value of 14 DMSO control wells on the same 384 well plate.
For data set [2], the target named is T1, VHL (Homo sapiens, UniProt P40337).
T1 construct: expressed in transfected cells
T1 sequence (P40337 whole entry): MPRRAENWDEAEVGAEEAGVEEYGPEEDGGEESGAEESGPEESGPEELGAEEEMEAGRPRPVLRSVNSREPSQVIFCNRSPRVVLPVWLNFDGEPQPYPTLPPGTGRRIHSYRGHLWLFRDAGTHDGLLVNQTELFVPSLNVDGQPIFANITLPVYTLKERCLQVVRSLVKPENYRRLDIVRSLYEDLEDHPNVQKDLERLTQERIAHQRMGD
Briefly: VHL HEK-293 BRET Assay (VHL NanoBRET Target Engagement Assay). Conditions: IC50 values measured in the presence of digitonin; HEK 293 RT VHL-NanoLuc stable cells; read-out: IC50 + Digi (μM)*.

The target in data set [3] is T1, VHL. Described as above. To be noted: HEK 293 RT VHL-NanoLuc stable cells; read-out: IC50. How it is done:
The VHL NanoBRET™ Target Engagement Assay analyzes the apparent affinity of test compounds for VHL in cells by competitive displacement of a VHL NanoBRET™ tracer reversibly bound to a NanoLuc® VHL fusion protein stably expressed in the cells.
Test compounds were transferred to the assay plate (384 Well White Non-Binding Corning Assay Plates (Corning-3574)) using an Echo 555 Liquid Handler (Labcyte) in 2.5 nL increments and, as appropriate, intermediate stock concentrations of compounds, in order to prepare a titration series. 50 nL of control compound (10 mM; parental unlabeled VHL antagonist; see structure below) and 50 nL of DMSO (negative control) were dispensed into the appropriate control wells. DMSO was backfilled to a final volume of 50 nL as required. 50 nl per well of 1 mM VHL NanoBRET™ Tracer in DMSO (NanoBRET™ Tracer-PEG2-590 (see structure below)) was transferred into each well using an Echo 555 (ultimately yielding a final concentration of 1 uM). HEK 293 RT VHL-NanoLuc® stable cells were cultured in DMEM High Glucose with Pyruvate, 10% fetal bovine serum, 2 mg/mL of Geneticin Selective Antibiotic (50 mg/mL) and 2 mM HEPES (1 M). Cells were seeded in Opti-MEM (Life Technologies-11058-021), 1.7×10^5 cells/mL, 40 μl per well into the assay plate, centrifuged at 500 rpm for 30 seconds and incubated for 2 hours. Max Signal control wells consisted of DMSO only treated wells. Minimum Signal control wells contained of 10 uM parental unlabeled VHL antagonist (control compound—see structure below). 3× Complete Substrate plus Inhibitor Solution was prepared in Opti-MEM (consists of a 1:166 dilution of NanoBRET™ Nano-Glo® Substrate plus a 1:500 dilution of Extracellular NanoLuc® Inhibitor in Opti-MEM), and 20 ul was dispensed into each well of the 384-well plate and centrifuged at 1000 rpm for 1 minute, then incubated for 2 minutes at room temperature. Background Signal control wells were prepared without tracer for background correction steps.
Plates were read using a PerkinElmer Envision Reader (model 2104-0020) equipped with Luminescence option (Mirror: BRET2 Enh (PE Barcode 659), Emission Filter: Omega 610LP (Barcode 504), 2nd Emission Filter: Umbelliferone 460 (Barcode 207), Measurement height: 6.5 mm, Measurement time: 1 s). The raw BRET ratio values were calculated by dividing the acceptor emission value (610 nm) by the donor emission value (460 nm) for each sample. To correct for background, the BRET ratio in the absence of tracer (average of no-tracer control samples) was subtracted from the BRET ratio of each sample. Raw BRET units were converted to milliBRET units (mBU) by multiplying each raw BRET value by 1,000. The normalized NanoBRET™ signal was calculated relative to the Max Signal control wells (DMSO treated control wells) and the Minimum Signal control wells. Percentage inhibition was calculated relative to the Minimum Signal control and Maximum Signal control wells. IC50 values were derived by four parameter curve fitting using the Robust method.

The subject of data set [4] is NCI-H23. The experiment in a line: Cell Viability Assay (CellTiter-Glo). Conditions: 5 days.
Description: as §1, §2

Read-outs that look alike come from different tables or passages of the source.

Broadly, the IC50 is the midpoint of a concentration-inhibition curve. `CNC(=O)C1CC(O)CN1C(=O)[C@@H](n1cc(C2CCC(C(=O)OC)CC2)nn1)C(C)(C)C` (stereo in doubt) [Compound 829, Methyl 4-[1-[(1S)-1-[(2R,4S)-4-hydroxy-2-(methylcarbamoyl)pyrrolidine-1-carbonyl]-2,2-dimethyl-propyl]triazol-4-yl]cyclohexanecarboxylate]: in data set [1] (1 μM), the “Normalized viability % DMSO” value amounted to 10.6 % DMSO. Further, the IC50 amounted to 5.86 µM in data set [2] and 2910 nM in data set [3].
On to `CC(C)(C)[C@@H](C(=O)N1C[C@H](O)C[C@H]1C(=O)NCC12CCCC(C1)C(=O)N2)n1cc(C2CC2)nn1` (stereo partly drawn) [Compound 110, (2S,4R)-1-[(2S)-2-(4-cyclopropyltriazol-1-yl)-3,3-dimethyl-butanoyl]-4-hydroxy-N-[(7-oxo-6-azabicyclo[3.2.1]octan-5-yl)methyl]pyrrolidine-2-carboxamide], for which the “Normalized viability % DMSO” value in data set [4] (1 μM) was 18.9 % DMSO.
In the case of `CC(C)(C)[C@@H](C(=O)N1C[C@H](O)C[C@H]1C(=O)NCc1ncc(-c2ccccc2)s1)n1cc(C2CC2)nn1` [Compound 140, (2S,4R)-1-[(2S)-2-(4-cyclopropyltriazol-1-yl)-3,3-dimethyl-butanoyl]-4-hydroxy-N-[(5-phenylthiazol-2-yl)methyl]pyrrolidine-2-carboxamide], the “Normalized viability % DMSO” value in data set [1] (10 μM) came out at 45.3 % DMSO. Moreover, the IC50 is 0.0142 µM in data set [2] and 10 nM in data set [3].
For the compound `CC(C)(C)[C@@H](C(=O)N1C[C@H](O)C[C@H]1C(=O)NC1CCc2c(Cl)cc(Cl)cc21)n1cc(C2CC2)nn1` (stereo partly drawn) [Compound 169, (2S,4R)-1-[(2S)-2-(4-cyclopropyltriazol-1-yl)-3,3-dimethyl-butanoyl]-N-(4,6-dichloroindan-1-yl)-4-hydroxy-pyrrolidine-2-carboxamide], in data set [4] (10 μM), the “Normalized viability % DMSO” value was 39.3 % DMSO. Also, the IC50 in data set [2] worked out at 2.93 µM; in data set [3], 1810 nM.
Consider `CC(C)(C)[C@@H](C(=O)N1C[C@H](O)C[C@H]1C(=O)NC(CO)c1ccc(Br)c(F)c1)n1cc(C2CC2)nn1` (stereo partly drawn) [Compound 174, (2S,4R)-N-[1-(4-bromo-3-fluoro-phenyl)-2-hydroxy-ethyl]-1-[(2S)-2-(4-cyclopropyltriazol-1-yl)-3,3-dimethyl-butanoyl]-4-hydroxy-pyrrolidine-2-carboxamide], for which the “Normalized viability % DMSO” value in data set [1] (10 μM) is given as 50.7 % DMSO. Besides, the IC50 came out at 0.0152 µM in data set [2] and 11.4 nM in data set [3].
Regarding `CN1CC(CCNC(=O)[C@@H]2C[C@@H](O)CN2C(=O)[C@@H](n2cc(C3CC3)nn2)C(C)(C)C)CC1=O` (stereo partly drawn) [Compound 236, (2S,4R)-1-[(2S)-2-(4-cyclopropyltriazol-1-yl)-3,3-dimethyl-butanoyl]-4-hydroxy-N-[2-(1-methyl-5-oxo-pyrrolidin-3-yl)ethyl]pyrrolidine-2-carboxamide], the “Normalized viability % DMSO” value in data set [4] (1 μM) is on record as 18.7 % DMSO.
Regarding `CC(C)(C)[C@@H](C(=O)N1C[C@H](O)C[C@H]1C(=O)N[C@@H]1C[C@@H](c2ccccc2)Oc2ccccc21)n1cc(C2CC2)nn1` [Compound 343, (2S,4R)-1-[(2S)-2-(4-cyclopropyltriazol-1-yl)-3,3-dimethyl-butanoyl]-4-hydroxy-N-[(2S,4R)-2-phenylchroman-4-yl]pyrrolidine-2-carboxamide], the “Normalized viability % DMSO” value in data set [1] (10 μM) is 44.1 % DMSO. Besides, the IC50 in data set [2] is 0.0321 µM; in data set [3], 15.6 nM.
In the same order, the values of `CCc1onc(C)c1CNC(=O)[C@@H]1C[C@@H](O)CN1C(=O)[C@@H](n1cc(C2CC2)nn1)C(C)(C)C` [Compound 405, (2S,4R)-1-[(2S)-2-(4-cyclopropyltriazol-1-yl)-3,3-dimethyl-butanoyl]-N-[(5-ethyl-3-methyl-isoxazol-4-yl)methyl]-4-hydroxy-pyrrolidine-2-carboxamide] are 7.6 % DMSO, 3.18 µM and 2340 nM.
Regarding `CC(C)(C)[C@@H](C(=O)N1C[C@H](O)C[C@H]1C(=O)NCC1CCS(=O)(=O)c2ccccc21)n1cc(C2CC2)nn1` (stereo partly drawn) [Compound 420, (2S,4R)-1-[(2S)-2-(4-cyclopropyltriazol-1-yl)-3,3-dimethyl-butanoyl]-N-[(1,1-dioxo-3,4-dihydro-2H-thiochromen-4-yl)methyl]-4-hydroxy-pyrrolidine-2-carboxamide], the “Normalized viability % DMSO” value in data set [4] (1 μM) was determined as 10.8 % DMSO. Also, the IC50 was 4.3 µM in data set [2] and 3890 nM in data set [3].
Consider `CC(C)(C)[C@@H](C(=O)N1C[C@H](O)C[C@H]1C(=O)NCCC1(O)CN(C(c2ccccc2)c2ccccc2)C1)n1cc(C2CC2)nn1` [Compound 449, (2S,4R)-N-[2-(1-benzhydryl-3-hydroxy-azetidin-3-yl)ethyl]-1-[(2S)-2-(4-cyclopropyltriazol-1-yl)-3,3-dimethyl-butanoyl]-4-hydroxy-pyrrolidine-2-carboxamide], for which the “Normalized viability % DMSO” value in data set [4] (10 μM) worked out at 43.4 % DMSO. Further, the IC50 was 2.17 µM in data set [2] and 802 nM in data set [3].
On to `CC[S+]([O-])C1CCCCC1NC(=O)[C@@H]1C[C@@H](O)CN1C(=O)[C@@H](n1cc(C2CC2)nn1)C(C)(C)C` (stereo partly drawn) [Compound 554, (2S,4R)-1-[(2S)-2-(4-cyclopropyltriazol-1-yl)-3,3-dimethyl-butanoyl]-N-(2-ethylsulfinylcyclohexyl)-4-hydroxy-pyrrolidine-2-carboxamide], for which, in data set [1] (10 μM), the “Normalized viability % DMSO” value came out at 38.2 % DMSO. For the same compound, the concentration for half-maximal inhibition (IC50) in data set [2] was 22.2 µM; in data set [3] it was 17200 nM.
With `CNC(=O)[C@@H]1C[C@@H](O)CN1C(=O)[C@@H](n1cc(COc2ccccc2F)nn1)C(C)(C)C` [Compound 729, (2S,4R)-1-[(2S)-2-[4-[(2-fluorophenoxy)methyl]triazol-1-yl]-3,3-dimethyl-butanoyl]-4-hydroxy-N-methyl-pyrrolidine-2-carboxamide], the “Normalized viability % DMSO” value in data set [4] (1 μM) stood at 7.4 % DMSO; in data set [1] (10 μM), 35.8 % DMSO. Also, the half-maximal inhibitory concentration (IC50) stood at 1.48 µM in data set [2] and 960 nM in data set [3].
On to `CNC(=O)[C@@H]1C[C@@H](O)CN1C(=O)[C@@H](n1cc(-c2cnc(F)cc2C)nn1)C(C)(C)C` [Compound 792, (2S,4R)-1-[(2S)-2-[4-(6-fluoro-4-methyl-3-pyridyl)triazol-1-yl]-3,3-dimethyl-butanoyl]-4-hydroxy-N-methyl-pyrrolidine-2-carboxamide], for which the “Normalized viability % DMSO” value in data set [1] (10 μM) stood at 13.9 % DMSO. Moreover, the figures for the IC50 in data set [2] and in data set [3] were 2.46 µM and 1920 nM, respectively.
Consider `CNC(=O)[C@@H]1C[C@@H](O)CN1C(=O)[C@@H](n1cc(Cn2cnc3cc(C)c(C)cc32)nn1)C(C)(C)C` [Compound 914, (2S,4R)-1-[(2S)-2-[4-[(5,6-dimethylbenzimidazol-1-yl)methyl]triazol-1-yl]-3,3-dimethyl-butanoyl]-4-hydroxy-N-methyl-pyrrolidine-2-carboxamide], for which the “Normalized viability % DMSO” value in data set [4] (10 μM) came out at 44.5 % DMSO. Besides, the concentration for half-maximal inhibition (IC50) in data set [2] came to 3 µM; in data set [3], 5460 nM.
For the compound `CC(C)(C)[C@@H](C(=O)N1C[C@H](O)C[C@H]1C(=O)NCCCn1cnc2c(N)ncnc21)n1cc(C2CC2)nn1` [Compound 1129, (2S,4R)-N-[3-(6-aminopurin-9-yl)propyl]-1-[(2S)-2-(4-cyclopropyltriazol-1-yl)-3,3-dimethyl-butanoyl]-4-hydroxy-pyrrolidine-2-carboxamide], in data set [1] (10 μM), the “Normalized viability % DMSO” value was determined as 4.2 % DMSO. Moreover, the half-inhibitory concentration (IC50) in data set [2] was found to be 2.33 µM; in data set [3], 17300 nM.
Regarding `Cn1c(CCNC(=O)[C@@H]2C[C@@H](O)CN2C(=O)[C@@H](n2cc(C3CC3)nn2)C(C)(C)C)nc2c(F)cccc21` [Compound 1131, (2S,4R)-1-[(2S)-2-(4-cyclopropyltriazol-1-yl)-3,3-dimethyl-butanoyl]-N-[2-(4-fluoro-1-methyl-benzimidazol-2-yl)ethyl]-4-hydroxy-pyrrolidine-2-carboxamide], the “Normalized viability % DMSO” value in data set [4] (1 μM) turned out to be 21.7 % DMSO.
